Measurements taken from US20240150335A1, “FUSED RING DERIVATIVES CONTAINING 1,4-OXAZEPANE” (MEDSHINE DISCOVERY INC., priority 2021, published 2024).

Legend:
[1] = Pharmacokinetic evaluation in SD rats; format: in vivo; conditions: oral administration 10.0 mg/kg
Method: Experimental Example 4: Pharmacokinetic Evaluation of the Compound of the Present Disclosure in Rats
Experimental purpose: To test the pharmacokinetics of the compound in SD rats in vivo
(§1) Experimental materials: SD rats (male, 200 to 300 g, 6 to 10 weeks old, Beijing Vital River)
The pharmacokinetic characteristics of the compound in rodents after intravenous injection and oral administration were tested according to the standard protocol. In the experiment, the candidate compound was formulated into clear solutions, and a single intravenous injection and oral administration were respectively given to two rats. The vehicle of intravenous injection and oral administration is 5:95 DMSO and 10% hydroxypropyl β-cyclodextrin aqueous solution. The whole blood samples within 24 hours were collected in commercial EDTA2K anticoagulant tubes. The tubes were centrifuged at 6000 g for 3 minutes. The supernatant was separated to obtain plasma samples. 20 times the volume of acetonitrile solution containing internal standard was added to precipitate protein. The mixture was centrifuged. The supernatant was take out. An equal volume of water was added. Then the mixture was centrifuged to take the supernatant as the sample for sampling. Plasma concentration was quantitatively analyzed by LC-MS/MS analysis method, and pharmacokinetic parameters were calculated, such as apparent volume of distribution, clearance rate, half-life, area under the drug-time curve.

DPP1 of U937 cells = DPP1 of U937 cells (Homo sapiens (Human), UniProt P53634); assay: Activity test of inhibiting DPP1 in U937 cells; format: cell-based; conditions: Gly-Phe-AFC probe, read-out: IC50, inhibitory activity on DPP1 of U937 cells
Chain of DPP1 of U937 cells (P53634 25-134): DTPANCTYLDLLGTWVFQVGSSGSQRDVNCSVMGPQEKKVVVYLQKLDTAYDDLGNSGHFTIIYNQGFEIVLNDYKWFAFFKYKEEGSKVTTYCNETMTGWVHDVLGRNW
Chain of DPP1 of U937 cells (P53634 231-394): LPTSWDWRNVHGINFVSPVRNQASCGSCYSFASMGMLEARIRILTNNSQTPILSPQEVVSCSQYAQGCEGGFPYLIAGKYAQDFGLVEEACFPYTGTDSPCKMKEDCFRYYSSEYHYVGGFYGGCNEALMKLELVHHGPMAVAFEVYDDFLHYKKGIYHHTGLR
Chain of DPP1 of U937 cells (P53634 395-463): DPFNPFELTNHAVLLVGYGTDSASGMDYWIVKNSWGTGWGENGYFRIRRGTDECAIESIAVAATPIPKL
Method: Experimental Example 2: Activity Test of Inhibiting DPP1 in U937 Cells
Experimental Materials: • 1) Experimental reagents and consumables
The cell plate was placed in a carbon dioxide incubator for 1 day; • (3) after incubation for 1 hour, 100 μM Gly-Phe-AFC probe solution was added thereto, that is, 60 mM Gly-Phe-AFC probe stock solution was diluted with culture medium to 500 μM working solution; the working solution in 10 μL per well was transferred into the cell plate, and the cell plate was incubated in a carbon dioxide incubator for 1 hour;
3) the plate was read, and the data were analyzed: • (1) plate reading: after the cell incubation was completed, the cell plate was taken out, and the plate was read on Victor Nivo.
Using the equation (Sample−Min)/(Max−Min)×100% to convert the raw data into inhibition rate, the IC50 value might be obtained by curve fitting with four parameters (obtained by “log (inhibitor) vs. response—Variable slope” mode in GraphPad Prism).

[2] = Rat tissue (bone marrow) distribution; format: in vivo; conditions: SD rats
Method: Experimental Example 6: Evaluation of Rat Tissue (Bone Marrow) Distribution of the Compound of the Present Disclosure
Experimental purpose: To test the distribution of the compound in the bone marrow and plasma of SD rats
as §1
The content of the compound in the bone marrow and plasma of rats after oral administration was tested according to the standard protocol. In the experiment, the candidate compound was formulated into a clear solution. The vehicle was 5:95 DMSO and 10% hydroxypropyl β-cyclodextrin aqueous solution. A dose of 5 mg/kg was given to rats as a single oral administration. The whole blood samples and bone marrow samples were collected at 0.25, 0.5, 1, 2, 4, 6, and 24 hours, respectively. The whole blood samples were collected in commercial EDTA2K anticoagulant tubes. The tubes were centrifuged at 6000 g for 3 minutes. The supernatant was separated to obtain plasma samples. The acetonitrile solution containing internal standard was added to precipitate protein. The mixture was centrifuged. The supernatant was take out. An equal volume of water was added. After mixing well, plasma concentration was quantitatively analyzed by LC-MS/MS analysis method, and the area under the drug-time curve was calculated. The left femur of the rat was taken, and the muscle was removed. One end was cut off, placed in a centrifuge tube with the open end downwards. The tubes were centrifuged at 8000 rpm for 1 minute. The precipitate was bone marrow. The bone marrow was mixed with 50% methanol-water, grinded into a homogenate. The homogenate was added with an acetonitrile solution containing an internal standard to precipitate protein. The mixture was centrifuged to take the supernatant, added with an equal volume of water. After mixing well, the drug concentration in bone marrow was quantitatively analyzed by LC-MS/MS analysis method, and the area under the drug-time curve was calculated.
The calculation formula of bone marrow/plasma distribution coefficient is: Bone marrow/Plasma Ratio=bone marrow AUC0-last/plasma AUC0-last.

[3] = plasma, intravenous injection 2.0 mg/kg
[4] = bone marrow, 5 mg/kg single oral administration

Question: With `Cn1ncc2ccc(-c3ccc(C[C@@H](C#N)NC(=O)[C@@H]4CNCCCO4)c(F)c3)cc21` [Compound 8] as the compound, how does the “Bioavailability F” value ([1]; intravenous injection 2.0 mg/kg) read?
Answer: 39.1%

Question: And the “Clearance rate CL” value [1, 3]?
Answer: 13.1 mL/min/kg

Question: What about the “Volume of distribution at steady state Vdss” value [1, 3] of the same compound?
Answer: 1.9 L/kg

Question: And the Cmax ([1]; plasma, intravenous injection 2.0 mg/kg, read-out: Peak concentration Cmax)?
Answer: 2240 nM

Question: What about the “Area under drug-time curve AUC0-∞ PO” value ([1]; plasma) of the same compound?
Answer: 11.864 µM·h

Question: What about the “Half life T1/2 (PO)” value ([1]; plasma) of the same compound?
Answer: 3.2 h

Question: What about the IC50 (DPP1 of U937 cells) of the same compound?
Answer: 2.4 nM

Question: What about the “Bone marrow/plasma distribution coefficient” value ([2]; 5 mg/kg oral, bone marrow AUC0-last/plasma AUC0-last) of the same compound?
Answer: 7.0

Question: And the “Bone marrow Area under drug-time curve AUC0-last PO” value [2, 4]?
Answer: 68856 nmol·h/kg

Question: And the “Bone marrow Peak concentration Cmax” value [2, 4]?
Answer: 5014 nmol/kg

Question: And the “Plasma Area under drug-time curve AUC0-last PO” value ([2]; plasma, 5 mg/kg single oral administration)?
Answer: 9.902 µM·h

Question: And the Cmax ([2]; plasma, 5 mg/kg single oral administration, read-out: Plasma Peak concentration Cmax)?
Answer: 1020 nM
